Test results as given in US20140255432A1, “SILVESTROL, SILVESTROL ANALOGS AND USES THEREOF” (priority 2011, published 2014).

Experiments:
[1] = test system: EBV-positive lymphoblastoid cell lines (LCL); test: Apoptosis/viability by annexin/PI flow cytometry; assay type: cell-based, human; conditions: 2-50 nM; 24, 72, 120 hr; p=0.006 averaged over doses and time points
Method: Cells from irradiated or non-irradiated co-cultures were co-stained with LIVE/DEAD cell stain (Invitrogen, Grand Island, N.Y.) and hu-CD3-APC and either hu-CD4-PE, hu-CD-8-PE, hu-CD19-PE (BD Biosciences, San Diego, Calif.), or hu-CD56-PE (Beckman Coulter, Brea, Calif.). Live events were gathered by gating on cells negative for the LIVE/DEAD stain on an FC500 cytometer (Beckman Coulter). Cell viability was also measured by flow cytometry at 24, 72, and 120 hr using annexin-V-FITC and propidium iodide (PI) according to the manufacturer's instructions (BD Biosciences).
(§1) The direct anti-tumor activity of silvestrol in leukemia and lymphoma models has been document (Hwang 2004; Bordeleau 2008; Cencic 2009; Lucas 2009 Alinari 2011; Saradhi 2011) as well as silvestrol's increased cytotoxicity to malignant B cells compared to normal blood lymphocytes (Lucas 2009). However, activity of silvestrol has not previously been described in spontaneous EBV-transformed cell lines. Silvestrol's activity in fully transformed EBV-positive LCL derived from tumors of SCID mice engrafted with PBMC from EBV-seropositive donors was observed. Six of these EBV-LCL lines were plated in the presence of low concentrations of silvestrol (2-50 nM), and apoptosis (viability assessed by annexin/PI flow cytometry) (FIG. 2A) and proliferation (MTS assay) (FIG. 2B) were evaluated at 24, 72, and 120 hr. […]

[2] = test system: EBV LMP-1 oncogene transcript; test: EBV LMP-1 oncogene transcript expression in LCL; assay type: cell-based, Epstein-Barr virus; conditions: three cell lines; days 1, 3, 5 (FIG. 46)
Description: (§2) FIG. 41 presents data regarding NK cytotoxicity of K562 cells. […] FIG. 42 presents data regarding the cytotoxicity of LCLs pretreated with BZLF 1. […] BZLF1 antigen pulsed LCLs promoted enhanced killing in untreated and silvestrol-treated CTLs. FIG. 43 presents data relating to CD4 IFNgamma release with LCL pretreated with BZLF1. […] FIG. 44 presents data relating to CD4 IFNgamma release with LCL pretreated with BZLF 1. […] FIG. 45 presents data relating to interleukin-6 induction by silvestrol. […] FIG. 46 presents data relating to a change in LMP-1 expression following silvestrol treatment. […] Three cell lines were examined on days 1, 3, and 5 following treatment. FIG. 47 presents data relating to a change in EBNA1 expression following silvestrol treatment. Three cell lines were examined on days 1, 3, and 5 following treatment.

K562 cells = test: NK cytotoxicity of K562 cells; assay type: cell-based; conditions: 10 nM (FIG. 41)
Description: as §2

autologous LCL targets = test: Flow cytometry-based cytotoxicity assay (CFSE/7-AAD), effectors against autologous LCL; assay type: cell-based, human
Method: Non-radioactive flow cytometry-based cytotoxicity assays have been described previously (Godoy-Ramirez 2005; Helguera 2011). Co-cultures of PBMC and irradiated LCL were grown in the presence or absence of silvestrol for 14 d and collected. Fresh autologous LCL cells were stained with 200 nM carboxyfluorescein diacetate succinimidyl ester (CFSE) (CellTrace™, Invitrogen) for 15 min at 25° C. prior to being mixed with effectors from the irradiated co-cultures at an effector:target (E:T) ratio of 20:1 for 4 hr at 37° C. After the incubation, cells were stained with 7-aminoactinomycin D (7AAD) (BD Biosciences, San Diego, Calif.) and washed. Cytotoxicity was measured by gating on the CFSE-positive events and measuring the 7AAD-positive cells. (See FIGS. 31 and 32). For antibody-dependent cell-mediated cytotoxicity (ADCC) assays the same technique was used; however, the co-cultured effectors were natural killer (NK) cell-enriched and were incubated in the presence or absence of 5 μg/mL rituximab or herceptin (negative control) (Genentech, Inc., South San Francisco, Calif.) for 4 hr at 37° C.
Immune cell function was then analyzed as part of the indirect anti-tumor activity of silvestrol. Cytotoxicity assays were performed. To investigate the effect of silvestrol on adaptive immunity, LCL cells were stained with the cell-tracking dye CFSE, then incubated at an effector to target ratio of 20:1 with autologous PBMC that had been cultured in the presence of irradiated LCL, with or without silvestrol, for 14 days. After a 4 hr incubation, cells were stained with the viability dye 7-AAD and washed. Cytotoxic activity against LCL targets was measured by gating on the CFSE positive events and measuring the 7-AAD positive cells (FIGS. 31-32). […] Data are shown relative to the vehicle-only control and are the averages of three independent experiments. Bars show −/+ standard deviation.
Given that LCL cells were depleted and effector cell cytotoxicity was maintained in non-irradiated co-cultures, whether silvestrol lowers the apoptotic threshold of the LCL tumor target was examined. PBMC were co-cultured with irradiated LCL in the absence of silvestrol for 14 days. These expanded effectors and fresh LCL each were separately incubated with silvestrol or vehicle control for 18 hr and washed. Cells were then combined, and after 4 hr incubation, cytotoxicity assays were performed as above. […] Data are shown relative to the vehicle-only control and are the averages of three independent experiments. Bars show −/+ standard deviation.

IFNgamma = IFNgamma release / production of immune effector cells; assay type: cell-based, human
Method: CoCx were incubated in the presence of 10 U/ml IL-2 and given a single dose of 0 (vehicle only), 2, 5, or 10 nM silvestrol. At day 14 cells were (A) stimulated non-specifically by addition of 12-O-tetradecanoylphorbol-13-acetate (TPA) and ionomycin (INO) to assay for the ability to release interferon gamma (IFNγ) or (B) by the addition of equal numbers autologous LCL to measure cell mediated response to antigen-induced IFNγ production. IFNγ production was measured by […] flow following four hour stimulation.
as §2

[3] = test system: EBV-positive lymphoblastoid cell lines (LCL); test: MTS proliferation assay; assay type: cell-based, human
Method: MTS proliferation assays were performed according the CellTiter 96™ Aqueous Cell Proliferation Assay Technical Bulletin (Promega, Madison, Wis.). 5×10^4 cells were plated in each well of a 96-well plate at 37° C. and assayed for proliferation at 24, 72, and 120 hr.
as §1, with “hr. Cells were plated at a sufficiently low density so that even after five days there was minimal loss of viability due to nutrient depletion in the untreated control. In FIG. 2A, data are shown as percent annexin-negative and PI-negative cells relative to the time-matched vehicle control. Bars show −/+ standard deviation.” for “hr.”

Compound: COC(=O)[C@H]1[C@@H](O)[C@@]2(O)c3c(OC)cc(O[C@@H]4O[C@@H]([C@H](O)CO)CO[C@H]4OC)cc3O[C@@]2(c2ccc(OC)cc2)[C@@H]1c1ccccc1 [silvestrol]
- apoptosis vs. untreated control [1]: Moderate but significant activity
- expression of the EBV LMP-1 oncogene transcript [2]: decreased
- direct killing of K562 cells by NK cells (K562 cells): not adversely affected
- direct killing of autologous EBV+ LCLs by EBV-specific CTLs (autologous LCL targets; 10 nM (FIG. 42)): not adversely affected
- cytotoxic activity against autologous LCL maintained, compared to effectors expanded without silvestrol (autologous LCL targets; effectors expanded 14 days with 10 nM, E:T 20:1, 4 hr): over 70%
- ability of silvestrol-treated effectors to kill targets vs. untreated effectors (autologous LCL targets; effectors incubated 18 hr with silvestrol, p=0.287): no decrease
- cytotoxic activity of effector populations against autologous EBV+ tumor cells (autologous LCL targets; expanded 14 days in 2, 5, 10 nM, 3 donors (FIG. 17)): did not affect cytotoxic activity
- killing of LCL target cells pretreated with silvestrol vs. untreated targets (autologous LCL targets; targets pretreated 18 hr, p<0.0001): more efficiently killed
- IFNgamma release of CD4+ T cells (IFNgamma; 10 nM, LCL pretreated with BZLF1 (FIG. 43)): not adversely affected
- IFN production of immune effector subsets against irradiated autologous EBV+ LCL (DC9) (IFNgamma; low concentrations (2-10 nM) (FIG. 18)): not abrogated
- growth inhibition vs. untreated control ([3]; 2-50 nM, 24, 72, 120 hr, p<0.0001 averaged over doses and time points): Moderate but significant activity
- IC50 ([3]; Homo sapiens, Lymphoblastoid cell, six EBV-LCL lines, 72 hr, estimated, read-out: 50% growth inhibitory concentration (IC50)): ~0.04 µM
